According to the supplement of paper PMC10627819:

Columns and labels:
S. aureus Newman [1] = assay: Bliss interaction score (quartile over a dose matrix) (fitness difference); higher = more antagonism (negative = synergy)
Method in brief: (§1)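 Fitness was OD595 at entry into stationary phase divided by the plate's robust no-drug mean and capped at 1; single-drug fitness was inferred from combination data. The Bliss score is observed minus expected (product) fitness, summarised by quartiles over technical, biological and donor/recipient replicates.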

S. pneumoniae D39V = assay: as above
Method in brief: as §1

S. aureus DSM 20231 [2] = assay: as above
Method in brief: as §1

B. subtilis 168 [3] = assay: as above
Method in brief: as §1

S. aureus DSM 20231 [4] = assay: fitness (endpoint OD595 vs no drug) (fraction); higher = more growth
Method in brief: (§2)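 With the first reading as background, OD595 was measured every 30 min for 14 h in 384-well plates kept at 37 °C and inoculated at OD595 0.01. TSB, LB Lennox or CY was the medium. Fitness is the optical density at the transition into stationary phase divided by the robust mean of no-drug control wells, with a cap of 1.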

B. subtilis 168 [5] = assay: as above
Method in brief: as §2

S. aureus Newman [6] = assay: as above; conditions: main component drawn
Method in brief: as §2
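Throughout, for Bliss interaction score (quartile over a dose matrix): first quartile when negative (synergy) and third quartile when positive (antagonism).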

Cc1onc(-c2ccccc2)c1C(=O)N[C@@H]1C(=O)N2[C@@H]1SC(C)(C)[C@@H]2C(=O)O [Oxacillin] + COc1cc(Cc2cnc(N)nc2N)cc(OC)c1OC [Trimethoprim]
Conditions	Bliss interaction score
B. subtilis 168 [3]	0.0589
S. aureus DSM 20231 [2]	0.0401
S. aureus Newman [1]	-0.0935
S. pneumoniae D39V	0.164

one replicate
Conditions	fitness
B. subtilis 168 [5], first compound 0.002 µg/mL, partner 1 µg/mL	0.498
B. subtilis 168 [5], first compound 0.002 µg/mL, partner 2 µg/mL	0.37
B. subtilis 168 [5], first compound 0.004 µg/mL, partner 1 µg/mL	0.418
B. subtilis 168 [5], first compound 0.004 µg/mL, partner 2 µg/mL	0.257
B. subtilis 168 [5], first compound 0.0078 µg/mL, partner 0.1 µg/mL	0.898
B. subtilis 168 [5], first compound 0.0078 µg/mL, partner 0.125 µg/mL	0.385
B. subtilis 168 [5], first compound 0.0078 µg/mL, partner 0.2 µg/mL	0.804
B. subtilis 168 [5], first compound 0.0078 µg/mL, partner 0.4 µg/mL	0.578
B. subtilis 168 [5], first compound 0.008 µg/mL, partner 1 µg/mL	0.351
B. subtilis 168 [5], first compound 0.008 µg/mL, partner 2 µg/mL	0.304
B. subtilis 168 [5], first compound 0.0155 µg/mL, partner 0.1 µg/mL	0.839
B. subtilis 168 [5], first compound 0.0155 µg/mL, partner 0.125 µg/mL	0.363
B. subtilis 168 [5], first compound 0.0155 µg/mL, partner 0.2 µg/mL	0.802
B. subtilis 168 [5], first compound 0.0155 µg/mL, partner 0.4 µg/mL	0.599
B. subtilis 168 [5], first compound 0.031 µg/mL, partner 0.1 µg/mL	0.882
B. subtilis 168 [5], first compound 0.031 µg/mL, partner 0.125 µg/mL	0.352
B. subtilis 168 [5], first compound 0.031 µg/mL, partner 0.2 µg/mL	0.763
B. subtilis 168 [5], first compound 0.031 µg/mL, partner 0.4 µg/mL	0.536
B. subtilis 168 [5], first compound 0.075 µg/mL, partner 0.125 µg/mL	0.0694
B. subtilis 168 [5], first compound 0.075 µg/mL, partner 0.25 µg/mL	0.0331
B. subtilis 168 [5], first compound 0.075 µg/mL, partner 0.5 µg/mL	0.026
B. subtilis 168 [5], first compound 0.15 µg/mL, partner 0.125 µg/mL	0.0313
B. subtilis 168 [5], first compound 0.15 µg/mL, partner 0.25 µg/mL	0.0424
B. subtilis 168 [5], first compound 0.15 µg/mL, partner 0.5 µg/mL	0.0705
B. subtilis 168 [5], first compound 0.3 µg/mL, partner 0.125 µg/mL	0.0436
B. subtilis 168 [5], first compound 0.3 µg/mL, partner 0.25 µg/mL	0.0503
B. subtilis 168 [5], first compound 0.3 µg/mL, partner 0.5 µg/mL	0.0489
S. aureus DSM 20231 [4], first compound 0.0156 µg/mL, partner 0.125 µg/mL	0.558
S. aureus DSM 20231 [4], first compound 0.0312 µg/mL, partner 0.125 µg/mL	0.523
S. aureus DSM 20231 [4], first compound 0.0625 µg/mL, partner 0.125 µg/mL	0.477

fitness
Conditions	partner 0.25 µg/mL	partner 0.5 µg/mL	partner 1 µg/mL
B. subtilis 168 [5], first compound 0.002 µg/mL	–	0.46	–
B. subtilis 168 [5], first compound 0.004 µg/mL	–	0.475	–
B. subtilis 168 [5], first compound 0.008 µg/mL	–	0.467	–
B. subtilis 168 [5], first compound 0.031 µg/mL	–	0.384	–
S. aureus DSM 20231 [4], first compound 0.0156 µg/mL	0.561	0.129	0.0621
S. aureus DSM 20231 [4], first compound 0.0312 µg/mL	0.559	0.147	0.0523
S. aureus DSM 20231 [4], first compound 0.0625 µg/mL	0.438	0.0674	0.0399

C[n+]1ccc(-c2cc[n+](C)cc2)cc1 [Paraquat] + CCCCCCCCCC(=O)N[C@@H]1[C@H]([C@@H]([C@H](O[C@H]1OC2=C3C=C4C=C2OC5=C(C=C(C=C5)[C@H]([C@H]6C(=O)N[C@@H](C7=C(C(=CC(=C7)O)OC8[C@H]([C@H]([C@@H]([C@H](O8)CO)O)O)O)C9=C(C=CC(=C9)[C@H](C(=O)N6)NC(=O)[C@@H]4NC(=O)[C@@H]1C2=CC(=CC(=C2)OC2=C(C=CC(=C2)[C@H](C(=O)N[C@H](CC2=CC(=C(O3)C=C2)Cl)C(=O)N1)N)O)O)O)C(=O)O)O[C@H]1[C@@H]([C@H]([C@@H]([C@H](O1)CO)O)O)NC(=O)C)Cl)CO)O)O [Teicoplanin]
main component drawn
Conditions	Bliss interaction score
B. subtilis 168 [3]	-0.044
S. aureus DSM 20231 [2]	0.0665
S. aureus Newman [1]	0.0904
S. pneumoniae D39V	0.0634

fitness, S. aureus Newman [6]
Conditions	first compound 1.25 µg/mL	first compound 2.5 µg/mL	first compound 5 µg/mL
partner 0.1562 µg/mL	≥ 1	≥ 1	≥ 1
partner 0.3125 µg/mL	≥ 1	0.98	0.962
partner 0.625 µg/mL	0.912	0.87	0.846

fitness
Conditions	first compound 1.25 µg/mL	first compound 2.5 µg/mL	first compound 5 µg/mL
S. aureus DSM 20231 [4], partner 0.1562 µg/mL, main component drawn	0.957	0.954	0.967
S. aureus DSM 20231 [4], partner 0.3125 µg/mL, main component drawn	0.99	≥ 1	≥ 1
S. aureus DSM 20231 [4], partner 0.625 µg/mL, main component drawn	≥ 1	≥ 1	≥ 1
S. aureus Newman [6], partner 0.62 µg/mL, one replicate	0.795	0.782	0.775
S. aureus Newman [6], partner 1.24 µg/mL, one replicate	0.737	0.745	0.761
S. aureus Newman [6], partner 2.48 µg/mL, one replicate	0.336	0.402	0.117

C[n+]1ccc(-c2cc[n+](C)cc2)cc1 [Paraquat] + COc1cc(Cc2cnc(N)nc2N)cc(OC)c1OC [Trimethoprim]
Conditions	Bliss interaction score
B. subtilis 168 [3]	-0.0973
S. aureus DSM 20231 [2]	0.0513
S. aureus Newman [1]	-0.0902
S. pneumoniae D39V	0.0991

fitness
Conditions	first compound 1.25 µg/mL	first compound 2.5 µg/mL	first compound 5 µg/mL
B. subtilis 168 [5], partner 0.25 µg/mL	0.683	0.604	–
B. subtilis 168 [5], partner 0.5 µg/mL	0.385	–	0.298
S. aureus DSM 20231 [4], partner 0.125 µg/mL	0.715	0.741	0.68
S. aureus DSM 20231 [4], partner 0.25 µg/mL	0.602	0.606	0.604
S. aureus DSM 20231 [4], partner 1 µg/mL	0.0458	0.0312	0.0357

fitness, B. subtilis 168 [5], one replicate
Conditions	partner 0.1 µg/mL	partner 0.125 µg/mL	partner 0.2 µg/mL	partner 0.4 µg/mL	partner 1 µg/mL	partner 2 µg/mL
first compound 1.25 µg/mL	0.944	0.737	0.744	0.526	0.309	0.332
first compound 2.5 µg/mL	0.947	0.734	0.66	0.459	0.396	0.237
first compound 5 µg/mL	0.873	0.626	0.642	0.358	0.068	0.0488

Cn1c2cccc(=O)c-2nc2ccccc21 [Pyocyanin] + COc1cc(Cc2cnc(N)nc2N)cc(OC)c1OC [Trimethoprim]
Conditions	Bliss interaction score
B. subtilis 168 [3]	0.0421
S. aureus DSM 20231 [2]	0.163
S. aureus Newman [1]	0.123
S. pneumoniae D39V	0.117

fitness, one replicate
Conditions	partner 0.1 µg/mL	partner 0.125 µg/mL	partner 0.2 µg/mL	partner 0.4 µg/mL	partner 1 µg/mL	partner 2 µg/mL
B. subtilis 168 [5], first compound 1.25 µg/mL	0.744	0.7	0.672	0.502	0.354	0.3
B. subtilis 168 [5], first compound 2.5 µg/mL	0.758	0.598	0.669	0.414	0.297	0.273
B. subtilis 168 [5], first compound 5 µg/mL	0.501	0.563	0.429	0.242	0.191	0.211
S. aureus DSM 20231 [4], first compound 1.25 µg/mL	–	0.659	–	–	–	–
S. aureus DSM 20231 [4], first compound 2.5 µg/mL	–	0.738	–	–	–	–
S. aureus DSM 20231 [4], first compound 5 µg/mL	–	0.577	–	–	–	–

fitness
Conditions	first compound 1.25 µg/mL	first compound 2.5 µg/mL	first compound 5 µg/mL
B. subtilis 168 [5], partner 0.25 µg/mL	0.653	0.594	–
B. subtilis 168 [5], partner 0.5 µg/mL	0.521	0.439	0.35
S. aureus DSM 20231 [4], partner 0.25 µg/mL	0.553	0.555	0.5
S. aureus DSM 20231 [4], partner 0.5 µg/mL	0.316	0.497	0.442
S. aureus DSM 20231 [4], partner 1 µg/mL	0.0451	0.053	0.0904

CN(N=O)C(=O)N[C@@H](C=O)[C@@H](O)[C@H](O)[C@H](O)CO [Streptozotocin] + COc1cc(Cc2cnc(N)nc2N)cc(OC)c1OC [Trimethoprim]
Conditions	Bliss interaction score
B. subtilis 168 [3]	0.062
S. aureus DSM 20231 [2]	-0.0675
S. aureus Newman [1]	-0.12
S. pneumoniae D39V	-0.125

fitness, one replicate
Conditions	first compound 0.15 µg/mL	first compound 0.3 µg/mL	first compound 0.6 µg/mL
B. subtilis 168 [5], partner 0.1 µg/mL	0.903	0.871	0.9
B. subtilis 168 [5], partner 0.125 µg/mL	0.748	0.728	0.731
B. subtilis 168 [5], partner 0.2 µg/mL	0.758	0.703	0.805
B. subtilis 168 [5], partner 0.4 µg/mL	0.523	0.536	0.521
S. aureus DSM 20231 [4], partner 0.125 µg/mL	0.645	0.666	0.602

fitness
Conditions	first compound 0.15 µg/mL	first compound 0.3 µg/mL	first compound 0.6 µg/mL
B. subtilis 168 [5], partner 0.5 µg/mL	0.51	0.496	0.501
S. aureus DSM 20231 [4], partner 0.25 µg/mL	0.549	0.557	0.493
S. aureus DSM 20231 [4], partner 0.5 µg/mL	0.0352	0.0171	0.0159
S. aureus DSM 20231 [4], partner 1 µg/mL	0.0265	0.0265	0.0187

Cc1cc(NS(=O)(=O)c2ccc(N)cc2)no1 [Sulfamethoxazol] + COc1cc(Cc2cnc(N)nc2N)cc(OC)c1OC [Trimethoprim]
Conditions	Bliss interaction score
B. subtilis 168 [3]	-0.173
S. aureus DSM 20231 [2]	-0.481
S. aureus Newman [1]	0.0676
S. pneumoniae D39V	-0.364

fitness, one replicate
Conditions	first compound 0.5 µg/mL	first compound 1 µg/mL	first compound 2 µg/mL	first compound 4 µg/mL
B. subtilis 168 [5], partner 0.1 µg/mL	–	0.607	0.473	0.373
B. subtilis 168 [5], partner 0.125 µg/mL	0.481	–	–	0.285
B. subtilis 168 [5], partner 0.2 µg/mL	–	0.489	0.374	0.353
B. subtilis 168 [5], partner 0.25 µg/mL	0.389	–	–	–
B. subtilis 168 [5], partner 0.4 µg/mL	–	0.343	0.318	0.352
B. subtilis 168 [5], partner 0.5 µg/mL	0.299	–	–	–
B. subtilis 168 [5], partner 1 µg/mL	–	0.37	0.245	0.226
B. subtilis 168 [5], partner 2 µg/mL	–	0.323	0.163	0.109
S. aureus DSM 20231 [4], partner 0.125 µg/mL	–	0.534	0.22	0.041

fitness
Conditions	first compound 1 µg/mL	first compound 2 µg/mL	first compound 4 µg/mL
B. subtilis 168 [5], partner 0.125 µg/mL	0.375	0.305	–
B. subtilis 168 [5], partner 0.25 µg/mL	0.351	0.376	–
B. subtilis 168 [5], partner 0.5 µg/mL	0.35	0.337	0.288
S. aureus DSM 20231 [4], partner 0.25 µg/mL	0.0669	0.0417	0.023
S. aureus DSM 20231 [4], partner 0.5 µg/mL	0.015	0.0145	0.0126
S. aureus DSM 20231 [4], partner 1 µg/mL	0.0332	0.0147	0.013
